Holding throughout (type): in vivo, human
A short description of data set [1]: Phase 2 dental pain study: safety (TEAEs, vital signs). Conditions: Safety population. The procedure: Efficacy was assessed during the 8 hours after Time 0. Safety was assessed by the incidence of treatment-emergent AEs (TEAEs) and changes in vital sign measurements.
The safety endpoints were the incidence of TEAEs and changes in vital sign measurements.
Protocol-specified safety data were provided in by-subject listings. The Medical Dictionary for Regulatory Activities (MedDRA) (version 11.0) was used to classify all AEs with respect to system organ class and preferred term. Adverse event summaries included only TEAEs, which were summarized by incidence, severity, and relationship to study drug for each treatment group. The Cochran-Mantel-Haenszel test was used to compare the rates of occurrence between the placebo and Indomethacin Nanoformulation Capsule groups for all TEAEs. A list of AEs leading to study discontinuation, along with the summaries described above, was also provided.
Vital sign measurements were summarized using descriptive statistics (mean, standard deviation [SD], median, minimum, and maximum) at each scheduled time point for each treatment group. Changes from Baseline for vital signs were calculated for each subject and summarized for each treatment group at each scheduled time point after Baseline. No formal statistical tests were performed.

In data set [2] the test system is pain after surgical removal of impacted third molars. Description: Phase 2 dental pain study: patient's global evaluation of study drug. Conditions: 400 mg; ITT. The procedure:
(§1) The secondary efficacy endpoints were as follows: • TOTPAR over 0 to 4 hours (TOTPAR-4) after Time 0 • Visual Analogue Scale (VAS) pain intensity difference (VASPID) at each scheduled time point after Time 0 • Time to onset of analgesia (measured as time to perceptible pain relief confirmed by meaningful pain relief) • VAS pain intensity score at each scheduled time point • VAS summed pain intensity difference (VASSPID) over 0 to 4 hours (VASSPID-4) and over 0 to 8 hours (VASSPID-8) after Time 0 • Pain relief score at each scheduled time point after Time 0 • Peak pain relief • Time to peak pain relief • Time to first perceptible pain relief • Time to meaningful pain relief • Proportion of subjects using rescue medication • Time to first use of rescue medication (duration of analgesia) • Patient's global evaluation of study drug Safety:
For ordinal secondary endpoints such as pain relief at each scheduled time point, peak pain relief, and global evaluation of study drug, descriptive summaries including the number and percentage of subjects within each category were provided for each treatment group. Nominal P values from Cochran-Mantel-Haenszel tests comparing the placebo group with other treatment groups were provided, but no formal statistical inferences were drawn on the basis of these tests.

The test system is the same in data set [3]. Description: Phase 2 dental pain study: use of rescue medication (proportion of subjects, time to first use). Conditions: 400 mg. The procedure:
Subjects assessed their baseline pain intensity (VAS) before receiving study drug (predose, Time 0) and their pain intensity (VAS) and pain relief (5-point categorical scale) at 15, 30, and 45 minutes and 1, 1.5, 2, 3, 4, 5, 6, 7, and 8 hours after Time 0 and immediately before the first dose of rescue medication. The 2-stopwatch method was used to record the time to perceptible and time to meaningful pain relief, respectively. Acetaminophen (1000 mg) was permitted as the initial rescue medication. Subjects were encouraged to wait at least 60 minutes after receiving study drug before taking rescue medication. […] Other restrictions included the following: no alcohol use from 24 hours before surgery until discharge on Day 1; nothing by mouth (NPO) from midnight before surgery until 1 hour after surgery; clear liquids only from 1 hour after surgery until 1 hour after dosing; and advancement of diet 1 hour after dosing according to standard practice.
as §1
For each time-to-event endpoint, the Kaplan-Meier method was used to evaluate the treatment effect. Time to onset of analgesia (measured as time to perceptible pain relief confirmed by meaningful pain relief) was based on data collected using the 2-stopwatch method. […] A summary table provided the number of subjects analyzed, the number of subjects censored, estimates for the quartiles, and 95% confidence intervals (CIs) for the estimated median. P values from log-rank tests were also used to examine treatment effect. Cox proportional hazard models were used to explore potential covariates such as sex, baseline pain intensity, and surgical trauma rating, if appropriate.
For the proportion of subjects using rescue medication, a logistic regression model that adjusted for baseline pain intensity was used to evaluate the treatment effect. Subgroup analysis by sex was performed if sex was confirmed to be a statistically significant covariate for TOTPAR-8. Baseline values were defined as the last measurements taken before dosing with a study drug.

`Cc1ccc(-c2cc(C(F)(F)F)nn2-c2ccc(S(N)(=O)=O)cc2)cc1` [Celecoxib]: in data set [1], the “Subjects with ≧1 severe TEAE” value was “(5.9) %” and the “Subjects with ≧1 treatment-related TEAE” value is recorded as “(2.0) %”. Further, in data set [1] (n), the Subjects who died was 0, the “Subjects who discontinued due to a TEAE” value is 0 and the “Subjects with ≧1 SAE” value is 0. Also, in data set [2], the “Patient's global evaluation of study drug: Excellent, %” value is “(15.7) %”; the “Patient's global evaluation of study drug: Fair, %” value is “(17.6) %”; the “Patient's global evaluation of study drug: Good, %” value is “(19.6) %”; the “Patient's global evaluation of study drug: Poor, %” value is “(11.8) %”. Besides, the “Patient's global evaluation of study drug: Very Good, %” value in data set [2] is “(35.3) %”. In data set [3], the “Hazard ratio vs placebo, Cox proportional hazards model (time to first use of rescue medication)” value turned out to be 0.2; the “Time to first use of rescue medication: subjects analyzed, %” value is reported as “(41.2) %”; the “Time to first use of rescue medication: subjects censored, %” value is “(58.8) %”. In addition, in data set [3] (Kaplan-Meier estimate), the “Time to first use of rescue medication, Mean” value is 4.7 h and the “Time to first use of rescue medication, Q25” value was 3.30 h.

Source of the values: patent US8992982B2, “Formulation of indomethacin” (Iceutica Pty Ltd., priority 2009, dated 2015).
